{"source": "ChEMBL document CHEMBL4049442", "about": "“Design, Synthesis, and Biological Evaluation of Dimorpholine Substituted Thienopyrimidines as Potential Class I PI3K/mTOR Dual Inhibitors” (J Med Chem, 2017)", "key": {"U-87 MG [1]": {"system": "U-87 MG", "assay": "Antitumor activity against human U87MG cells xenografted in BALB/c nude mouse assessed as tumor growth inhibition administered po for 18 days measured every 3 days during compound dosing", "format": "functional, organism-based", "details": "U-87MG ATCC"}, "[2]": {"biological_target": "PI3-kinase p110-alpha/p85-alpha (Homo sapiens, UniProt P42336)", "sequence (P27986 whole entry)": "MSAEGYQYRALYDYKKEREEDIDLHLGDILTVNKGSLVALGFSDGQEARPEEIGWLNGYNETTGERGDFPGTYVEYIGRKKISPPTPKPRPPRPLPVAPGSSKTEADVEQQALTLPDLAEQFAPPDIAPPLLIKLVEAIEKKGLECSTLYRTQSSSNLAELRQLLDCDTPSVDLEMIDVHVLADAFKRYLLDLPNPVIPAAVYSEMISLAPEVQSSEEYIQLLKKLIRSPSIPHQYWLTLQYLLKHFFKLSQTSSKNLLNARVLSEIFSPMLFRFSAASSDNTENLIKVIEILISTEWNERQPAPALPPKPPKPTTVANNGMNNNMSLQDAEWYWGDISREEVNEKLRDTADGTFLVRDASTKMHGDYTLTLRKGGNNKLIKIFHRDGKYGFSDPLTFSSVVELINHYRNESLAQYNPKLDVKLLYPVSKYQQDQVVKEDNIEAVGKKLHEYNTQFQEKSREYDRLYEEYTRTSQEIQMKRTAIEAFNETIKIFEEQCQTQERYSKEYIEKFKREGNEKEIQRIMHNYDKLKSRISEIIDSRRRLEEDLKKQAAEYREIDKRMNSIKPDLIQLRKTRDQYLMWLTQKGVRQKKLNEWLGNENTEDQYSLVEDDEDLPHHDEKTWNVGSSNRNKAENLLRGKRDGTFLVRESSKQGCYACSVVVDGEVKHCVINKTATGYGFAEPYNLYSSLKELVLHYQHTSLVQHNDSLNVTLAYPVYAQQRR", "sequence (P42336 whole entry)": "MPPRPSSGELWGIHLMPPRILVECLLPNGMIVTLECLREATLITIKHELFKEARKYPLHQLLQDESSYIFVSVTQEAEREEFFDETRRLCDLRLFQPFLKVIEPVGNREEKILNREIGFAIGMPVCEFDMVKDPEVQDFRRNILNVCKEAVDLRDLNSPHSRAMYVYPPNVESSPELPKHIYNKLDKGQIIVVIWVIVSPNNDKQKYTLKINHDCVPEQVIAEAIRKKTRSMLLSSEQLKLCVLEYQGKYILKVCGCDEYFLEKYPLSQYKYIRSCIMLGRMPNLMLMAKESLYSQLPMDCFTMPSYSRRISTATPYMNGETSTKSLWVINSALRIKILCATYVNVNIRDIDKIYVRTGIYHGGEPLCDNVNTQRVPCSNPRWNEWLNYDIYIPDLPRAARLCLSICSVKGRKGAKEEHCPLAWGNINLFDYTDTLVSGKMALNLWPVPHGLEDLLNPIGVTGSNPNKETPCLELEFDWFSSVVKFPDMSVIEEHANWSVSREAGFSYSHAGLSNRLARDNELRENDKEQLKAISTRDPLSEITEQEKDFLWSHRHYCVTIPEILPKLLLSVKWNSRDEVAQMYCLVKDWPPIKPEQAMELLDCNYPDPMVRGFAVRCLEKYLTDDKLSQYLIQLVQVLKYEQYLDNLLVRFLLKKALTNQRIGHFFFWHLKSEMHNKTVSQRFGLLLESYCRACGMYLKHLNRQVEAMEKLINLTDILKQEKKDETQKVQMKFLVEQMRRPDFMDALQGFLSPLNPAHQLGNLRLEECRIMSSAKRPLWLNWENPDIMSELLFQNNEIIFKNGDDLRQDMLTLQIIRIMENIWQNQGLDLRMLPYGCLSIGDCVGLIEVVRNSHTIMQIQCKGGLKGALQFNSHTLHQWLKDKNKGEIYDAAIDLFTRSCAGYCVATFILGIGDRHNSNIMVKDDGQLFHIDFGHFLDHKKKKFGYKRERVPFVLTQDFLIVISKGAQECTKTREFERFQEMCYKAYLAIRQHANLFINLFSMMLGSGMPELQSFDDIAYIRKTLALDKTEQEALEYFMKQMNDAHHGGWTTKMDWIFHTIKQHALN", "assay": "Inhibition of full length recombinant human N-terminal His-tagged PI3K p110alpha/p85alpha expressed in baculovirus using PIP2 as substrate after 1 hr by kinase-glo luminescence assay"}, "[3]": {"biological_target": "Serine/threonine-protein kinase mTOR (Homo sapiens, UniProt P42345)", "assay": "Inhibition of recombinant human N-terminal FLAG-tagged mTOR (1362 to end residues) expressed in baculovirus infected Sf21 insect cells assessed as reduction in ULight-4E-BP1 phosphorylation after 30 mins by lance ultra assay"}, "[4]": {"biological_target": "Phosphatidylinositol 4,5-bisphosphate 3-kinase catalytic subunit gamma isoform (Homo sapiens, UniProt P48736)", "sequence (P48736 whole entry, canonical isoform)": "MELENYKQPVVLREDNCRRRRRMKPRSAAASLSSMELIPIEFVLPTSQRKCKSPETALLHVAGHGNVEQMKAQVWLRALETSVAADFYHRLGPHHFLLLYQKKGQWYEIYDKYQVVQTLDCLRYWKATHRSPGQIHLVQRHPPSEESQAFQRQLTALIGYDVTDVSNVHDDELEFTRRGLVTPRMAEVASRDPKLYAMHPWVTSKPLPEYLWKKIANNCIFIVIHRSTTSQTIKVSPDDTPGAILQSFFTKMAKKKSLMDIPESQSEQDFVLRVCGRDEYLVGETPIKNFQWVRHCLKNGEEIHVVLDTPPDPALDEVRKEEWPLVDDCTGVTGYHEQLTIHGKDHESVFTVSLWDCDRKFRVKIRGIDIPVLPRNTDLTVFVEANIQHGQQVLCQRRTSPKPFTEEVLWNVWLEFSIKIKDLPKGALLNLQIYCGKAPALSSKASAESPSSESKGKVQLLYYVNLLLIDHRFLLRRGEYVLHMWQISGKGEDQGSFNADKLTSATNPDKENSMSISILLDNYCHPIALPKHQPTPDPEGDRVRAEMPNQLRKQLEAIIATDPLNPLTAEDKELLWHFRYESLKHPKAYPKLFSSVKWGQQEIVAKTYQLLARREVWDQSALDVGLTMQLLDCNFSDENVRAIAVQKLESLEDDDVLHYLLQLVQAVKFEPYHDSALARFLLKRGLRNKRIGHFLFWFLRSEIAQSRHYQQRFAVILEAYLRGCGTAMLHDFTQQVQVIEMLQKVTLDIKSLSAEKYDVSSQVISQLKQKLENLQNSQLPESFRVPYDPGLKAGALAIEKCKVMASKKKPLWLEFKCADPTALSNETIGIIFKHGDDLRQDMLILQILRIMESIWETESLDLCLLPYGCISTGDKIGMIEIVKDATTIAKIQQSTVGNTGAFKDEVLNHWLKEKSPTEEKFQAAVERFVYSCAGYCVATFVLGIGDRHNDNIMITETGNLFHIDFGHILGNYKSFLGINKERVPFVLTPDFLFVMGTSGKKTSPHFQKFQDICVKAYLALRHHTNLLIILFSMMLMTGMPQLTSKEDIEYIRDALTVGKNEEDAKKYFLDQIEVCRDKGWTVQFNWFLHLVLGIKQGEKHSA", "assay": "Inhibition of recombinant human His-tagged PI3K p110gamma expressed in baculovirus using PIP2 as substrate after 1 hr by kinase-glo luminescence assay"}, "Homo sapiens [5]": {"species_on_record": "Homo sapiens", "assay": "Inhibition of PI3K in human SKOV3 cells assessed as reduction in Akt phosphorylation at S473 after 24 hrs by Western blot analysis", "format": "cell-based"}, "Homo sapiens [6]": {"species_on_record": "Homo sapiens", "assay": "Inhibition of PI3K in human SKOV3 cells assessed as reduction in Akt phosphorylation at T308 after 24 hrs by Western blot analysis", "format": "cell-based"}, "Homo sapiens [7]": {"species_on_record": "Homo sapiens", "assay": "Inhibition of PI3K in human SKOV3 cells assessed as reduction in S6 phosphorylation after 24 hrs by Western blot analysis", "format": "cell-based"}, "Homo sapiens [8]": {"species_on_record": "Homo sapiens", "assay": "Inhibition of PI3K in human U87MG cells assessed as reduction in Akt phosphorylation at S473 after 24 hrs by Western blot analysis", "format": "cell-based"}, "Homo sapiens [9]": {"species_on_record": "Homo sapiens", "assay": "Inhibition of PI3K in human U87MG cells assessed as reduction in Akt phosphorylation at T308 after 24 hrs by Western blot analysis", "format": "cell-based"}, "Homo sapiens [10]": {"species_on_record": "Homo sapiens", "assay": "Inhibition of PI3K in human U87MG cells assessed as reduction in S6 phosphorylation after 24 hrs by Western blot analysis", "format": "cell-based"}, "[11]": {"assay": "Clearance in Sprague-Dawley rat at 2 mg/kg, iv by LC-MS/MS analysis", "format": "ADME, organism-based", "details": "in vivo"}, "[12]": {"assay": "Volume of distribution at steady state in Sprague-Dawley rat at 2 mg/kg, iv by LC-MS/MS analysis", "format": "ADME, organism-based", "details": "in vivo, read-out: Vdss"}, "[13]": {"assay": "Cmax in Sprague-Dawley rat at 10 mg/kg, po by LC-MS/MS analysis", "format": "ADME, organism-based", "set-up": "dose 10 mg/kg, route oral", "details": "in vivo"}, "[14]": {"assay": "AUC in Sprague-Dawley rat at 10 mg/kg, po by LC-MS/MS analysis", "format": "ADME, organism-based", "details": "in vivo"}, "[15]": {"assay": "Oral bioavailability in Sprague-Dawley rat at 10 mg/kg by LC-MS/MS analysis", "format": "ADME, organism-based", "details": "in vivo"}, "SK-OV-3 [16]": {"system": "SK-OV-3", "assay": "Antitumor activity against human SKOV3 cells xenografted in BALB/c nude mouse assessed as tumor growth inhibition administered via po for 24 days measured every 3 days during compound dosing", "format": "functional, organism-based"}, "SK-OV-3 [17]": {"system": "SK-OV-3", "assay": "Antitumor activity against human SKOV3 cells xenografted in BALB/c nude mouse assessed as tumor growth inhibition at 60 mg/kg/day, po for 24 days measured every 3 days during compound dosing relative to control", "format": "functional", "details": "SK-OV-3, po, read-out: TGI"}, "SK-OV-3 [18]": {"system": "SK-OV-3", "assay": "Antitumor activity against human SKOV3 cells xenografted in BALB/c nude mouse assessed as tumor growth inhibition at 30 mg/kg/day, po for 24 days measured every 3 days during compound dosing relative to control", "format": "functional", "details": "SK-OV-3, po, read-out: TGI"}, "SK-OV-3 [19]": {"system": "SK-OV-3", "assay": "Antitumor activity against human SKOV3 cells xenografted in BALB/c nude mouse assessed as tumor growth inhibition at 15 mg/kg/day, po for 24 days measured every 3 days during compound dosing relative to control", "format": "functional", "details": "SK-OV-3, po, read-out: TGI"}, "U-87 MG [20]": {"system": "U-87 MG", "assay": "Antitumor activity against human U87MG cells xenografted in BALB/c nude mouse assessed as tumor growth inhibition at 40 mg/kg/day, po for 18 days measured every 3 days during compound dosing relative to control", "format": "functional, U-87MG ATCC", "details": "read-out: TGI"}, "U-87 MG [21]": {"system": "U-87 MG", "assay": "Antitumor activity against human U87MG cells xenografted in BALB/c nude mouse assessed as tumor growth inhibition at 20 mg/kg/day, po for 18 days measured every 3 days during compound dosing relative to control", "format": "functional, U-87MG ATCC", "details": "read-out: TGI"}, "Mus musculus [22]": {"system": "Mus musculus", "assay": "Toxicity in BALB/c nude mouse xenografted with human SKOV3 cells assessed as body weight loss at 15 to 60 mg/kg/day, po for 24 days measured every 3 days during compound dosing", "format": "organism-based", "details": "in vivo"}, "Mus musculus [23]": {"system": "Mus musculus", "assay": "Toxicity in BALB/c nude mouse xenografted with human U87MG cells assessed as body weight loss at 20 to 40 mg/kg/day, po for 18 days measured every 3 days during compound dosing", "format": "organism-based", "details": "in vivo"}, "Mus musculus [24]": {"system": "Mus musculus", "assay": "In vivo inhibition of PI3K in BALB/c nude mouse xenografted with human SKOV3 cells assessed as reduction in Akt phosphorylation at S473 in tumors administered po for 24 days by immunohistochemical analysis", "format": "functional, organism-based"}, "Mus musculus [25]": {"system": "Mus musculus", "assay": "In vivo inhibition of PI3K in BALB/c nude mouse xenografted with human SKOV3 cells assessed as reduction in S6RP phosphorylation at Ser235/236 administered po for 24 days in tumors by immunohistochemical analysis", "format": "functional, organism-based"}, "SK-OV-3 [26]": {"system": "SK-OV-3", "assay": "Antitumor activity against human SKOV3 cells xenografted in BALB/c nude mouse assessed as decrease in cell proliferation administered po for 24 days by Ki67 staining based assay", "format": "functional, organism-based"}, "SK-OV-3 [27]": {"system": "SK-OV-3", "assay": "Antitumor activity against human SKOV3 cells xenografted in BALB/c nude mouse assessed as TUNEL positive cells at 15 to 60 mg/kg/day, po for 24 days", "format": "functional, organism-based"}, "PC-3": {"system": "PC-3", "assay": "cells", "details": "Homo sapiens, PC-3, 72 h"}, "LNCaP": {"system": "LNCaP", "assay": "cells", "details": "Homo sapiens, 72 h"}, "U-87 MG [28]": {"system": "U-87 MG", "assay": "cells", "details": "Homo sapiens, 72 h"}, "SK-OV-3 [29]": {"system": "SK-OV-3", "assay": "cells", "details": "Homo sapiens, SK-OV-3, 72 h"}, "[30]": {"assay": "Half-life in Sprague-Dawley rat at 2 mg/kg, iv by LC-MS/MS analysis", "details": "in vivo"}, "[31]": {"biological_target": "Phosphatidylinositol 4,5-bisphosphate 3-kinase catalytic subunit beta isoform (Homo sapiens, UniProt P42338)", "sequence (P42338 whole entry, canonical isoform)": "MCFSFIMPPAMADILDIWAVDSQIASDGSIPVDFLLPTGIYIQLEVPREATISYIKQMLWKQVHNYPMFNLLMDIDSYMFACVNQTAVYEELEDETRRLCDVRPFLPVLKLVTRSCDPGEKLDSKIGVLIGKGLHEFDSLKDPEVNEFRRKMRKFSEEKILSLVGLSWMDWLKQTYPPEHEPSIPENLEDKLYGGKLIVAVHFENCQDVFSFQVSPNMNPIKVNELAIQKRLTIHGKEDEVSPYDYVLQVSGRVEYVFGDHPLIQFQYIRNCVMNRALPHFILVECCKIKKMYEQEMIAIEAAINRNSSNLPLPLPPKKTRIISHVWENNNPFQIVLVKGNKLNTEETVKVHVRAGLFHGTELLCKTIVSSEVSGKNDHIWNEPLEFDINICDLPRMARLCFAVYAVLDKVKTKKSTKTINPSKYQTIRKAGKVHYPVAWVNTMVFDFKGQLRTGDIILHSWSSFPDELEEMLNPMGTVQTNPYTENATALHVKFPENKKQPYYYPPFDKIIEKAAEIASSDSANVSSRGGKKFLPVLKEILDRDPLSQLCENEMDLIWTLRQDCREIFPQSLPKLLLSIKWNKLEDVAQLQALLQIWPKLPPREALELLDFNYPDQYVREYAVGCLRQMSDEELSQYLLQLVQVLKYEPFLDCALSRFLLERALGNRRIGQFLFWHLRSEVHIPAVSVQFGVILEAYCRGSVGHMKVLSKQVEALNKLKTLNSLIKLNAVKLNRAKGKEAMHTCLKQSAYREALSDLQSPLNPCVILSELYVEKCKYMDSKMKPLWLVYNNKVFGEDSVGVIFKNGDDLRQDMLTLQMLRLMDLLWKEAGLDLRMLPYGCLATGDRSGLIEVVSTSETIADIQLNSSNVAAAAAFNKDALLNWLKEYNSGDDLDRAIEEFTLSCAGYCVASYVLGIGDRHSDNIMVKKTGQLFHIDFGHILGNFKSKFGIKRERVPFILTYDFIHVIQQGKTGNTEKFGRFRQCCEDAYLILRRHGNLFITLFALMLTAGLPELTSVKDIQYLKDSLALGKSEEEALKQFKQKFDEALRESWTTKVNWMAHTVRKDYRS", "assay": "Inhibition of PI3Kbeta (unknown origin) using PIP2 as substrate after 1 hr by ADP-Glo luminescence assay"}, "[32]": {"biological_target": "PI3-kinase p110-delta/p85-alpha (Homo sapiens, UniProt O00329)", "sequence (P27986 whole entry)": "as the sequence (P27986 whole entry) above", "sequence (O00329 whole entry)": "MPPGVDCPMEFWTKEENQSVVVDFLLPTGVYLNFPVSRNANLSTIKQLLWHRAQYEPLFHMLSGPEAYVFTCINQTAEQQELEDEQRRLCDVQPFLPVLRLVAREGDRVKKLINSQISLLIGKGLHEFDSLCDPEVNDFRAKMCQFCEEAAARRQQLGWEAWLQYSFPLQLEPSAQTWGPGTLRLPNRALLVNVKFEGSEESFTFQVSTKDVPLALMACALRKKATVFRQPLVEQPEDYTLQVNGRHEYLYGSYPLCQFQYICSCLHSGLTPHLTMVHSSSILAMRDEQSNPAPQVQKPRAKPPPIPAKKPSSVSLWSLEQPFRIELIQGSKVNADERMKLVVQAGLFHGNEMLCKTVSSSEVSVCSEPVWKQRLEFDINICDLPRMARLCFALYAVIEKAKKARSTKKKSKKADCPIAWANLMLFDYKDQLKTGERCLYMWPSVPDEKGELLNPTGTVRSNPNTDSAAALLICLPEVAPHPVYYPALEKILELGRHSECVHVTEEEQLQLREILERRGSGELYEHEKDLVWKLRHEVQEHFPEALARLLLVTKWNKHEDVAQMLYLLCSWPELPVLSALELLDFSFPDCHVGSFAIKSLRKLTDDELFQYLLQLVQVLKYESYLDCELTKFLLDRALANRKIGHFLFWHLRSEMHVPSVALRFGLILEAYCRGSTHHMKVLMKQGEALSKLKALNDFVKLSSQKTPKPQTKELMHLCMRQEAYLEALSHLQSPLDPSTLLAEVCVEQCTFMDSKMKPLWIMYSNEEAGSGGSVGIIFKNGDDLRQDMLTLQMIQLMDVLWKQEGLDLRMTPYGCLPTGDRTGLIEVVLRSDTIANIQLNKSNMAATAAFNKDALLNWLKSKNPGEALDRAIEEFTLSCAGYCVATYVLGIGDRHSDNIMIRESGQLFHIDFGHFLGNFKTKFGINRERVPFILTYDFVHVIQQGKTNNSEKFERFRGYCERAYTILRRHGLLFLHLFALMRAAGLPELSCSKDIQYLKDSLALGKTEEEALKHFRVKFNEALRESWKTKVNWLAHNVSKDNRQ", "assay": "Inhibition of recombinant full length human N-terminal His6-tagged PI3K p110delta/p85alpha expressed in baculovirus infected Sf21 cells using PIP2 as substrate after 2 hrs by kinase-glo luminescence assay"}}, "note": "The source made the active and inactive calls. The rule behind the calls is not given here.", "data": [{"smiles": "C[C@@H]1CN(c2nc(N3CCOCC3)c3sc(-c4ccn[nH]4)cc3n2)C[C@H](C)O1", "values": [{"measurement": "TGI", "setting": "U-87 MG [1]", "result": "Dose-dependent effect"}, {"measurement": "IC50", "setting": "[2]", "result": 0.015, "unit": "µM"}, {"measurement": "IC50", "setting": "[3]", "result": 0.016, "unit": "µM"}, {"measurement": "IC50", "setting": "[4]", "result": 0.075, "unit": "µM"}, {"measurement": "inhibition", "setting": "Homo sapiens [5]", "result": "Dose-dependent effect"}, {"measurement": "inhibition", "setting": "Homo sapiens [6]", "result": "Dose-dependent effect"}, {"measurement": "inhibition", "setting": "Homo sapiens [7]", "result": "Dose-dependent effect"}, {"measurement": "inhibition", "setting": "Homo sapiens [8]", "result": "Dose-dependent effect"}, {"measurement": "inhibition", "setting": "Homo sapiens [9]", "result": "Dose-dependent effect"}, {"measurement": "inhibition", "setting": "Homo sapiens [10]", "result": "Dose-dependent effect"}, {"measurement": "clearance", "setting": "[11]", "result": 1.74, "unit": "L/h/kg"}, {"measurement": "Vd", "setting": "[12]", "result": 4.4, "unit": "L/kg"}, {"measurement": "Cmax", "setting": "[13]", "result": 1.4, "unit": "µM"}, {"measurement": "AUC", "setting": "[14]", "result": 5.2, "unit": "µM·h"}, {"measurement": "bioavailability", "setting": "[15]", "result": 41, "unit": "%"}, {"measurement": "TGI", "setting": "SK-OV-3 [16]", "result": "Dose-dependent effect"}, {"measurement": "inhibition in vivo at 60 mg/kg/day", "setting": "SK-OV-3 [17]", "result": 89.6, "unit": "%"}, {"measurement": "inhibition in vivo at 30 mg/kg/day", "setting": "SK-OV-3 [18]", "result": 75.9, "unit": "%"}, {"measurement": "inhibition in vivo at 15 mg/kg/day", "setting": "SK-OV-3 [19]", "result": 48.5, "unit": "%"}, {"measurement": "inhibition in vivo at 40 mg/kg/day", "setting": "U-87 MG [20]", "result": 81.2, "unit": "%"}, {"measurement": "inhibition in vivo at 20 mg/kg/day", "setting": "U-87 MG [21]", "result": 69.2, "unit": "%"}, {"measurement": "Activity", "setting": "Mus musculus [22]", "result": "Non-Toxic"}, {"measurement": "Activity", "setting": "Mus musculus [23]", "result": "Non-Toxic"}, {"measurement": "inhibition", "setting": "Mus musculus [24]", "result": "Dose-dependent effect"}, {"measurement": "inhibition", "setting": "Mus musculus [25]", "result": "Dose-dependent effect"}, {"measurement": "Activity", "setting": "SK-OV-3 [26]", "result": "Dose-dependent effect"}, {"measurement": "Activity", "setting": "SK-OV-3 [27]", "result": "Active"}, {"measurement": "IC50", "setting": "PC-3", "result": 0.446, "unit": "µM"}, {"measurement": "IC50", "setting": "LNCaP", "result": 0.21, "unit": "µM"}, {"measurement": "IC50", "setting": "U-87 MG [28]", "result": 0.43, "unit": "µM"}, {"measurement": "IC50", "setting": "SK-OV-3 [29]", "result": 0.504, "unit": "µM"}, {"measurement": "half-life", "setting": "[30]", "result": 1.5, "unit": "h"}, {"measurement": "IC50", "setting": "[31]", "result": 0.175, "unit": "µM"}, {"measurement": "IC50", "setting": "[32]", "result": 0.01, "unit": "µM"}]}]}
